Measurements from patent publication US20080045513A1, “C[…] INHIBITOR AND […], ANTI-INFLAMMATORY OR ANTI-PYRETIC AGENT” (N.V. Organon, priority 2006, published 2008).

What was measured:
FAAH = biological target: T1, FAAH (Homo sapiens, UniProt O00519); assay: FAAH LC-MS/MS screening assay (anandamide hydrolysis by human liver microsomes); format: biochemical; details: for anandamide hydrolysis allowed (percent hydrolysis normalized to control): inhibitor at 30 nM, 60 minute incubation at 37° C.
T1 construct: 25 μL of human liver microsomes (31.3 μg); from tissue; host or cells: human liver microsomes
T1 sequence (O00519 1-579): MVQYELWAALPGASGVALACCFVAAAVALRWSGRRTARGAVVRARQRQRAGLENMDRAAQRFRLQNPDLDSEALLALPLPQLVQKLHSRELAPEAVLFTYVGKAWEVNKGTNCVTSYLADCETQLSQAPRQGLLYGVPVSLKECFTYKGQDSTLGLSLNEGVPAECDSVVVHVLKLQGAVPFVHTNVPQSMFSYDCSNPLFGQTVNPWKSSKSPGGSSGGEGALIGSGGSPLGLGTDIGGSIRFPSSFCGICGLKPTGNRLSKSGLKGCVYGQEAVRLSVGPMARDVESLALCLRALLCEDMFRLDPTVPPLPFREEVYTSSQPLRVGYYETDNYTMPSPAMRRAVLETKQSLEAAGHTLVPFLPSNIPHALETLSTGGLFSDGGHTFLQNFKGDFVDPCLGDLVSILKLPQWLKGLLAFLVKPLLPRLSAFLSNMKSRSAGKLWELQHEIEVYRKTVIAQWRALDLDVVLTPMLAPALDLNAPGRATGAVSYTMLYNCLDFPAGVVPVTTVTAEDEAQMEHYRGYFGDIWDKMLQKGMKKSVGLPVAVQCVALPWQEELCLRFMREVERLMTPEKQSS
Procedure: For determining IC50 values for candidate FAAH inhibitor compounds, the above method is used with an adjusted FAAH inhibitor concentration. In the IC50 assay, the FAAH inhibitor is added at a concentration range of approximately 3 μM to 0.03 nM. The final calculation of IC50 is determined by first transforming the concentrations by “X=log(X)” and then analyzing the data with a sigmoidal dose-response curve (no constraints) using GraphPad Prism version 4.00 for Windows (GraphPad Software, San Diego Calif. USA, www.graphpad.com).

[1] = Pharmacokinetics in rats following oral administration as a suspension; blood concentrations of compound, acetaminophen and fatty acid ethanolamides; format: in vivo; details: 10 mg/kg oral gavage
Procedure: Potential FAAH inhibitors are formulated for oral (p.o.), intraperitoneal (i.p.) or intravenous (i.v.) delivery to rats. Formulated compounds are administered and the animals were sacrificed at pre-determined time points post dose. At sacrifice, blood samples are collected into EDTA plasma tubes and whole brains were snap frozen in liquid nitrogen. EDTA plasma was isolated from blood samples after centrifugation. Brain and plasma samples are stored at −80° C. prior to analysis. All samples (brain and plasma) are analyzed for the concentrations of test compound (FAAH inhibitor), metabolites of the test compound (such as, for example, acetaminophen, propofol, NSAID, or NSAID metabolite) and endogenous fatty acid ethanolamide levels (including anandamide, oleoylethanolamide, and palmitoylethanolamide) by LC-MS/MS according to the invention. Levels of these compounds are compared across time points to determine pharmacokinetic properties of the test compound and partial pharmacological effects of inhibiting FAAH activity (including changes of fatty acid ethanolamide levels).
The pharmacokinetic properties of 4-acetamidophenyl cyclohexylnethylcarbamate were assessed in rats following oral administration as a suspension. […] The suspension of 4-acetamidophenyl cyclohexylmethylcarbamate was administered to rats at a dose of 10 mg/kg of 4-acetamidophenyl cyclohexylmethylcarbamate via oral gavage. Blood samples were extracted from the rats. Samples were analyzed for concentrations of OEA, PEA, AEA, 4-acetamidophenyl cyclohexylmethylcarbamate and acetaminophen (in-vivo metabolite). Baseline levels of OEA and PEA were 4.18 and 4.17 ng/mL, respectively.

[2] = tested on: CFA-induced mechanical hyperalgesia in rats; assay: Complete Freund's Adjuvant (CFA)-induced mechanical hyperalgesia (paw withdrawal threshold); format: in vivo, male Wistar rats; details: 60 mg/kg, p.o.; 24 h after intraplantar CFA; reading 2 h post drug administration
Procedure: In this rat model of inflammatory pain, inflammation is induced by intraplantar injection of complete Freund's adjuvant (CFA) into the hind paw. The associated mechanical hyperalgesia is quantified by measuring the reduction in paw withdrawal threshold (PWT) to a mechanical compression of the paw.
Experiments were conducted using male Wistar rats weighing 130-180 g. In brief, the rats' paw withdrawal threshold (PWT) to a mechanical compression of the hind paw was measured (baseline reading) using a Randall-Sellito apparatus (Ugo Basile). A cut-off of 200 g was employed to minimise tissue damage to the paw. The animals were then briefly anaesthetised with isoflurane (˜2%) and complete Freund's adjuvant (0.1 ml per paw) was injected subcutaneously (s.c.) into the plantar surface of the left hind paw. The animals were then returned to their home cage and left for the inflammation to develop.
Twenty four hours after CFA injection, PWT's were re-measured (0 min); only those animals developing hyperalgesia (>20 g decrease in PWT compared to their baseline readings) were included for drug assessment. Rats were then dosed orally with either vehicle or test compound. Readings were then made at 2 h post drug administration.

With `CC(=O)Nc1ccc(OC(=O)NC2CCCCC2)cc1` [4-acetamidophenyl cyclohexylcarbamate] the “anandamide hydrolysis allowed (percent hydrolysis normalized to control)” value (FAAH) was 56%.

In the case of `CC(=O)Nc1ccc(OC(=O)NCC2CCCCC2)cc1` [4-acetamidophenyl cyclohexylmethylcarbamate], the “AUC of AEA” value [1] is reported as 0 ng·h/mL, the “Tmax of AEA” value [1] is reported as 0 h and the “Tmax of OEA” value [1] is reported as 90 min. The “Tmax of PEA” value [1] was 60 min, the “AUC of OEA” value ([1]; baseline OEA 4.18 ng/mL) was 40 ng·h/mL and the “Cmax of OEA” value ([1]; baseline OEA 4.18 ng/mL) was 7.55 ng/mL. The “AUC of PEA” value ([1]; baseline PEA 4.17 ng/mL) was 43 ng·h/mL, the “Cmax of PEA” value ([1]; baseline PEA 4.17 ng/mL) was 8.85 ng/mL and the AUC ([1]; rat, plasma, suspension) was 6780 ng·h/mL. For the same molecule, the Cmax ([1]; rat, plasma, suspension) was 7740 ng/mL, the Tmax ([1]; rat, plasma, suspension) was 30 min and the “reversal of mechanical hyperalgesia” value [2] was “complete reversal”. For the same molecule, the “anandamide hydrolysis allowed (percent hydrolysis normalized to control)” value (FAAH) was 37% and the IC50 (FAAH; inhibitor range approximately 3 μM to 0.03 nM) was 14.6 nM.

With `NC(=O)c1cccc(-c2cccc(OC(=O)NC3CCCCC3)c2)c1` [reference compound] the “anandamide hydrolysis allowed (percent hydrolysis normalized to control)” value (FAAH) was 30%.
